The source of these data is patent publication US4507287A, “Preparation and method for the treatment of acne” (priority 1983, dated 1985).

Read-outs that look alike come from different tables or passages of the source.

For data set [1] the following is noted: animals and humans; cited from earlier work.
For data set [2], the system named is normal skin. The conditions noted are these: in vivo. Here is the method:
This rash, however, usually disappears shortly thereafter with no ill effects. Annals of the New York Academy of Sciences, Vol. […], (1967). S. W. Jacob, E. E. Rosenbaum, and D. C. Wood, eds., Vol. 1, Dimethyl Sulfoxide, 99 (1971), and Vol. 243, Annals of the New York Academy of Sciences, (1975). In the present invention DMSO is diluted to 70% with demineralized water before ara-A is added.

Data set [3] deals with normal skin. The conditions noted are these: applied to skin; cited from earlier work.
The test system of data set [4] is acne. As to the kind of experiment: topical treatment of acne with antibiotics mixed with DMSO. It counts as in vivo. The settings on record: antibiotic mixed with DMSO. The source says: These antibiotics including, amikacin, cefamandole, cefoxitin, erythromycin, tetracycline, tobramycin, vancomycin, lincomycin, and carbenicillin.
The nature of data set [5]: solubility of ara-A in DMSO/water versus water. It counts as physicochemical. The settings on record: DMSO in the solvent carrier medium.
A short description of data set [6]: recovery of unchanged ara-A from the DMSO and water solution. It counts as physicochemical. The settings on record: under the conditions of preparation. Here is the method:
There are no special procedures involved in preparing of the preparation for the treatment of acne of the present invention. The demineralized water and DMSO can be mixed first, and the ara-A (and benzocaine if used) is then dissolved in the DMSO and water solution. The ara-A can be added to the pure DMSO, and water can be added last. When water and DMSO are mixed, the solution becomes warm because there is a positive heat of solution. […] Ara-A can be recovered from the DMSO and water solution virtually 100% as unchanged ara-A.

For data set [7] the following is noted: cited from earlier work.
In a further data set the test system is DNA viruses. The settings on record: in vitro and in vivo (animal models or man), cited from earlier work.
The conditions of data set [8]: intravenous form; cited from earlier work.
The next data set has as its system rats. Kind of data set: acute oral toxicity of ara-A in rats. It counts as in vivo. The settings on record: extrapolated from LD50 in rats and mice. Here is the method: Regarding toxicity or other side effects on the patient of the proposed preparation, extensive pharmacologic and toxicity studies on ara-A have been carried out in animals and in man. […] This dose level indicates a low order of toxicity to a single parenteral dose. The acute oral LD50 in both rats and mice is greater than […]. This amount would be equivalent to more than […] (one and two thirds pound) in an average 150 pound person. […] In the form used in the present invention and with treatment by topical application, it is highly unlikely that any toxic side effects of ara-A would be observed.

The subject of another data set is DNA polymerase. The conditions noted are these: suppresses viral replication; cited from earlier work.
The subject of another data set is acne lesions. As to the kind of experiment: topical treatment of acne with ara-A and DMSO. Type of data set: in vivo. The settings on record: benzocaine added to ara-A/DMSO medication. An excerpt: Treatment of acne with the disclosed preparation should begin as soon as the first sign of the lesion (pimple) is apparent. […] The medication should be applied every two to four hours for the first two days during waking hours.

The conditions of data set [9]: in vivo. An excerpt:
Also one to two percent high viscosity carboxymethylcellulose, Carbopol (manufactured by Firestone Company, Akron, Ohio), or other suitable gelling agent might be added to the mixture to provide a gel which may be preferred for topical application.

In data set [10] the test system is acne. The settings on record: oral, long-term; Plewig et al.; cited from earlier work.

Regarding `C[S+](C)[O-]` [DMSO, dimethyl sulfoxide], the toxicity entry in [1] is recorded as “essentially nontoxic”. The “skin irritation at 70% DMSO” value in the data set with normal skin [2] is listed as “usually non-irritating to normal skin”. In the data set on normal skin [3], the “skin reaction to undiluted DMSO” value is reported as “sometimes may cause an itching or burning sensation with redness or rash”.

Regarding `NCC[C@H](O)C(=O)N[C@@H]1C[C@H](N)[C@@H](O[C@H]2O[C@H](CN)[C@@H](O)[C@H](O)[C@H]2O)[C@H](O)[C@H]1O[C@H]1O[C@H](CO)[C@@H](O)[C@H](N)[C@H]1O` [amikacin], the “effectiveness in topical treatment of acne” value (shortened to “effectiveness … of acne”) in the data set on acne [4] is recorded as “effective in the topical treatment of acne”.

As for `Nc1ncnc2c1ncn2[C@@H]1O[C@H](CO)[C@@H](O)[C@@H]1O` [ara-A, adenine-9- -D-arabinofuranoside], in [5], the “amount of ara-A dissolved versus DMSO concentration” value is recorded as “The higher the concentration of DMSO in the solvent carrier medium, the greater is the amount of ara-A that can be dissolved”. For the same molecule, the “chemical reaction between ara-A and DMSO” value in data set [6] is “no chemical reaction”. Also, the “toxicity through topical application” value in data set [7] was “not possible to demonstrate toxicity”. Besides, the “redness and irritation after topical application” value in data set [7] (in some cases) is “redness and slight irritation has been noted”. In addition, the antiviral activity entry was “active against a broad spectrum of DNA viruses” in the data set with DNA viruses and “in some cases to be effective against Herpes simplex virus” in the data set on DNA viruses (listed as Ara-A). Further, the “side effects of massive acute overdosage” value in data set [8] is “without any serious side effects”. Further, in the data set with rats, the “amount equivalent to the acute oral LD50 in an average 150 pound person” value is reported as “more than 750 grams”. Further, the “inhibition of DNA polymerase” value in the data set on DNA polymerase was “inhibits the enzyme DNA polymerase”.

As to `CCOC(=O)c1ccc(N)cc1` [benzocaine], the “influence of benzocaine on effectiveness of the medication” value in the data set on acne lesions is on record as “does not impair the effectiveness of the medication”. Moreover, the “deleterious effect on the patient” value in data set [9] was “Nor does the benzocaine appear to have any deleterious effect on the patient”.

As for `CC1(C)S[C@@H]2[C@H](NC(=O)C(C(=O)O)c3ccccc3)C(=O)N2[C@H]1C(=O)O` (some centres unmarked) [carbenicillin], the “effectiveness … of acne” value in the data set with acne [4] is “effective in the topical treatment of acne”.

For the molecule `Cn1nnnc1SCC1=C(C(=O)O)N2C(=O)[C@@H](NC(=O)[C@H](O)c3ccccc3)[C@H]2SC1` [cefamandole], in the data set with acne [4], the “effectiveness … of acne” value was “effective in the topical treatment of acne”.

As for `CO[C@@]1(NC(=O)Cc2cccs2)C(=O)N2C(C(=O)O)=C(COC(N)=O)CS[C@@H]21` [cefoxitin], the “effectiveness … of acne” value in the data set with acne [4] was “effective in the topical treatment of acne”.

On to `CC[C@H]1OC(=O)[C@H](C)[C@@H](O[C@H]2C[C@@](C)(OC)[C@@H](O)[C@H](C)O2)[C@H](C)[C@@H](O[C@@H]2O[C@H](C)C[C@H](N(C)C)[C@H]2O)[C@](C)(O)C[C@@H](C)C(=O)[C@H](C)[C@@H](O)[C@]1(C)O` [erythromycin], for which the “help in the management of acne” value in the data set with acne [10] is recorded as “help in the management of acne”. Also, the “effectiveness … of acne” value in the data set on acne [4] was “effective in the topical treatment of acne”.

As to `CCC[C@@H]1C[C@@H](C(=O)N[C@@H]([C@H]2O[C@H](SC)[C@H](O)[C@@H](O)[C@H]2O)[C@@H](C)O)N(C)C1` [lincomycin], in the data set with acne [10], the “help in the management of acne” value was “help in the management of acne”. For the same molecule, in the data set with acne [4], the “effectiveness … of acne” value is on record as “effective in the topical treatment of acne”.

On to `CN(C)C1C(=O)C(C(N)=O)=C(O)C2(O)C(=O)C3=C(O)c4c(O)cccc4C(C)(O)C3CC12` (centres unmarked) [tetracycline], for which, in the data set with acne [10], the “help in the management of acne” value is “help in the management of acne”. Further, in the data set with acne [4], the “effectiveness … of acne” value is listed as “effective in the topical treatment of acne”.

For `NC[C@H]1O[C@H](O[C@H]2[C@H](O)[C@@H](O[C@H]3O[C@H](CO)[C@@H](O)[C@H](N)[C@H]3O)[C@H](N)C[C@@H]2N)[C@H](N)C[C@@H]1O` [tobramycin], the “effectiveness … of acne” value with acne [4] is on record as “effective in the topical treatment of acne”.

As to `CN[C@H](CC(C)C)C(=O)N[C@H]1C(=O)N[C@@H](CC(N)=O)C(=O)N[C@H]2C(=O)N[C@H]3C(=O)N[C@H](C(=O)N[C@H](C(=O)O)c4cc(O)cc(O)c4-c4cc3ccc4O)[C@H](O)c3ccc(c(Cl)c3)Oc3cc2cc(c3O[C@@H]2O[C@H](CO)[C@@H](O)[C@H](O)[C@H]2O[C@H]2C[C@](C)(N)[C@H](O)[C@H](C)O2)Oc2ccc(cc2Cl)[C@H]1O` [vancomycin], the “effectiveness … of acne” value with acne [4] is “effective in the topical treatment of acne”.
